According to publication PMC8514817, “De Novo Design of Antimicrobial Peptides With a Special Charge Pattern and Their Application in Combating Plant Pathogens” (Frontiers in Plant Science, 2021):
≈ marks a conversion by molar mass, not a printed value. Where a SMILES comes first, the peptide text is derived from it. The star is where a group is joined. Palmitoyl = CCCCCCCCCCCCCCCC(=O)*

What was measured:
[1] = tested on: Eco DH5α; settings: 48 h
[2] = tested on: Pcc; settings: Table 7, rich media, up to 32 μg/ml
[3] = tested on: Ech; settings: Table 7, rich media, up to 32 μg/ml
[4] = tested on: Bc; settings: Table 6, minimal media, up to 32 μg/ml; for MIC: spores, 96 h; for MFC: spotted on PD plate 24~72 h
[5] = tested on: Cgl FST02; settings: Table 6, minimal media, up to 32 μg/ml; for MIC: spores, 96 h; for MFC: spotted on PD plate 24~72 h
[6] = tested on: Eco DH5α; settings: DH5α, 24 h
[7] = tested on: Xev Xvt28; settings: 24 h

Row | Molecule | MBC [1] | MIC [1] | MIC [4] | MFC [4] | MIC [5] | MFC [5] | IC50 [6] | IC50 [7] | further results
1 | Ac-WKKVKKVVKKVKKV-NH2 [pepV2] | 32 µg/mL | 32 µg/mL | – | – | – | – | – | – | MIC ([2]; 48 h): – (“–” indicates that no antimicrobial activity was detected in rich media at the highest peptide concentration (32μg/ml) that was tested in this study.); MBC ([2]; spotted on rich agar 48 h): – (“–” indicates that no antimicrobial activity was detected in rich media at the highest peptide concentration (32μg/ml) that was tested in this study.); MIC ([3]; 48 h): – (“–” indicates that no antimicrobial activity was detected in rich media at the highest peptide concentration (32μg/ml) that was tested in this study.); MBC ([3]; spotted on rich agar 48 h): – (“–” indicates that no antimicrobial activity was detected in rich media at the highest peptide concentration (32μg/ml) that was tested in this study.)
2 | CCCCCCCCCCCCCCCC(=O)N[C@@H](Cc1c[nH]c2ccccc12)C(=O)N[C@@H](CCCCN)C(=O)N[C@@H](CCCCN)C(=O)N[C@@H](CC(C)C)C(=O)N[C@@H](CCCCN)C(=O)N[C@@H](CCCCN)C(=O)N[C@@H](CC(C)C)C(=O)N[C@@H](CC(C)C)C(=O)N[C@@H](CCCCN)C(=O)N[C@@H](CCCCN)C(=O)N[C@@H](CC(C)C)C(=O)N[C@@H](CCCCN)C(=O)N[C@@H](CCCCN)C(=O)N[C@@H](CC(C)C)C(N)=O [pepD2P] (Palmitoyl-WKKLKKLLKKLKKL-NH2) | – | – | 8 µg/mL (≈ 3.94 µM) | 8 µg/mL (≈ 3.94 µM) | 8 µg/mL (≈ 3.94 µM) | 8 µg/mL (≈ 3.94 µM) | – | – | –
3 | Stearyl-WKKLKKLLKKLKKL-NH2 [pepD2S] | – | – | – (“–” indicates that no antimicrobial activity was detected in minimal media at the highest peptide concentration (32μg/ml) that was tested in this study.) | – (“–” indicates that no antimicrobial activity was detected in minimal media at the highest peptide concentration (32μg/ml) that was tested in this study.) | – (“–” indicates that no antimicrobial activity was detected in minimal media at the highest peptide concentration (32μg/ml) that was tested in this study.) | – (“–” indicates that no antimicrobial activity was detected in minimal media at the highest peptide concentration (32μg/ml) that was tested in this study.) | – | – | –
4 | Ac-WKLLKKLLKKLKKLLKKL-NH2 [pepC] | – | – | – | – | – | – | 10 µg/mL | 10 µg/mL | –
5 | Ac-WKLKLKLKLKLKLKLKLK-NH2 [pepE] | – | – | – | – | – | – | 10 µg/mL | 2 µg/mL | –
6 | Ac-WKKIKKIIKKIKKI-NH2 [pepI2] | 4 µg/mL | 4 µg/mL | – | – | – | – | – | – | –
